From publication PMC4131466, “Antidepressant Fluoxetine Modulates the In Vitro Inhibitory Activity of Buffalo Brain Cystatin: A Thermodynamic Study Using UV and Fluorescence Techniques” (Biotechnology Research International, 2014)

Biological target: T1, buffalo brain cystatin (BC)
T1 construct: gene CST3
Experiment: intrinsic fluorescence quenching, log-log plot
Type: binding, Bubalus bubalis
Details: 1 μM BC, 50 mM sodium phosphate pH 7.5, 298 K, 30 min incubation, excitation 280 nm; n = 0.79
Description: intrinsic fluorescence quenching, log-log plot on buffalo brain cystatin (BC)

## CNCCC(Oc1ccc(C(F)(F)F)cc1)c1ccccc1 (stereo not shown) [Fluoxetine]
  K (binding constant) mol^-1: 5.0317e+06 mol⁻¹
